# Values quoted from earlier work as cited in patent publication US7160555B2, “Immediate release medicinal compositions for oral use” (Kissei Pharmaceutical Co., Ltd., priority 1999, dated 2007).
# Test system: blood sugar
# Details: Japanese Patent Laid-Open No. 356459/1992
substance,measurement,value
(2S)-2-benzyl-3-(cis-hexahydro-2-iso-indolinylcarbonyl)propionic acid,lowering action of blood sugar,remarkable lowering action of blood sugar
